Experimental data reported in US9834558B2, “Substituted bridged urea analogs as sirtuin modulators” (GLAXOSMITHKLINE LLC, priority 2013, dated 2017).
Where two headings read alike, the source gives them in different places.

Molecular target: T1, SIRT1 (Homo sapiens, UniProt Q96EB6)
T1 sequence (Q96EB6 1-747): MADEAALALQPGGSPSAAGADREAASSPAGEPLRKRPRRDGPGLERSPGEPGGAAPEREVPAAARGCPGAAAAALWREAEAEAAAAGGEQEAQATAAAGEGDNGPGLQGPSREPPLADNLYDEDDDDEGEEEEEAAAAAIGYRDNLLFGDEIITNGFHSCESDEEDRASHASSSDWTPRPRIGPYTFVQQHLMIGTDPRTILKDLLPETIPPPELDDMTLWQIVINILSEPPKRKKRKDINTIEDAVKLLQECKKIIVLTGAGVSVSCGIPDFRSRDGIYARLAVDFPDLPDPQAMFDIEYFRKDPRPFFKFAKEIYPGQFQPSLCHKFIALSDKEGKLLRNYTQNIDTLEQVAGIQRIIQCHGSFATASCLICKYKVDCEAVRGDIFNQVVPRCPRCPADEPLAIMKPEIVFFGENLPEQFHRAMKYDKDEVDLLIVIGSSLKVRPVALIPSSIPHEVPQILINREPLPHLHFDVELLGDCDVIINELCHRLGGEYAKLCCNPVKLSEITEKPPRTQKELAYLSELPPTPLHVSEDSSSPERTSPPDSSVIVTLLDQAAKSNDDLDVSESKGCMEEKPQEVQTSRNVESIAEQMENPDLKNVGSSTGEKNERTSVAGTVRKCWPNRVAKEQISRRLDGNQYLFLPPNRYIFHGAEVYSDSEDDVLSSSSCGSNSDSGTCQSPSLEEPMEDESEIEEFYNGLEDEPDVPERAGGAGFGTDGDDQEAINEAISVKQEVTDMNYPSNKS
Assay: Trp mass spectrometry assay of SIRT1 activation
Assay type: biochemical
Settings: for TRP Activity (EC1.5): EC1.5 = concentration that results in 150% activation of SIRT1; for Emax: read-out: TRP MAX RESP (percent maximum fold activation)
How it was run: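 N-terminal His-tagged human SIRT1 (10 nM, E. coli BL21(DE3)) with 0.5 μM Ac-RHKK(Ac)W-NH2 peptide and 120 μM βNAD+, 25 min at 25 °C in HEPES pH 7.5, formic acid stop. OAADPR or deacetylated peptide quantified by mass spectrometry; EC1.5 (50% activity increase over control) and Percent Maximum Activation reported.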

[1] = Trp peptide assay, maximum activity relative to control (100%)
[2] = Trp mass spectrometry assay, EC1.5 = concentration of test compound that results in 150% activation of SIRT1
[3] = concentration giving 150% activation of SIRT1, Trp peptide substrate
[4] = Trp mass spectrometry assay, concentration of test compound giving 150% activation of SIRT1

| SMILES | TRP Activity (EC1.5) (Trp peptide assay) | Emax [1] | other results |
| --- | --- | --- | --- |
| Cc1cc(-c2ccc3c(n2)N(C(=O)Nc2cnccn2)[C@H]2CCN3C2)c(F)cn1 [(9S)-5-(5-fluoro-2-methylpyridin-4-yl)-N-(pyrazin-2-yl)-1,6,8-triazatricyclo[7.2.1.0 {2,7}]dodeca-2(7),3,5-triene-8-carboxamide] | B (B (EC1.5 1-25 μM)) | > 150% |  |
| O=C(Nc1ccccn1)N1c2nc(-c3cncc(F)c3)ccc2N2CCC1CC2 [Example 570] |  |  | Tryp AVG EC1.5 (μM) [2]: B (B (EC1.5 1-25 μM)) |
| O=C(Nc1cccnc1)N1c2nc(-c3cncc(C(F)(F)F)c3)ccc2N2C[C@@H](O)[C@H]1C2 [Example 705] |  |  | Tryp AVG EC1.5 (μM) [3]: B (B (EC1.5 1-25 μM)) |
| NCc1cnnn1-c1cccc(NC(=O)N2c3nc(-c4cccc(C(F)(F)F)c4)ccc3N3CC[C@H]2C3)c1 [Example 640] |  |  | Tryp AVG EC1.5 (μM) [3]: A (A (EC1.5<1 μM)) |
| Cc1cc(-c2ccc3c(n2)N(C(=O)N[C@@H](C)c2ccccn2)[C@H]2CCN3C2)ccn1 [(9S)-5-(2-methylpyridin-4-yl)-N-[(1S)-1-(pyridin-2-yl)ethyl]-1,6,8-triazatricyclo[7.2.1.0 {2,7}]dodeca-2,4,6-triene-8-carboxamide] | C (C (EC1.5>25 μM)) | < 150% |  |
| CC(C)(C)OC(=O)NCc1cccc(-c2ccc3c(n2)N(C(=O)Nc2ccncc2)[C@H]2CCCN3C2)c1 [Example 795] |  |  | Tryp AVG EC1.5 (μM) [3]: B (B (EC1.5 1-25 μM)) |
| Cc1ccc(-c2ccc3c(n2)N(C(=O)NC2CCCOC2)[C@H]2CCN3C2)cn1 (stereo partly drawn) [(9S)-5-(6-methylpyridin-3-yl)-N-(oxan-3-yl)-1,6,8-triazatricyclo[7.2.1.0^{2,7}]dodeca-2(7),3,5-triene-8-carboxamide] | C (C (EC1.5>25 μM)) | < 150% |  |
| O=C(Nc1ccc(N2CCCCC2)cc1)N1c2nc(-c3cccc(C(F)(F)F)c3)ccc2N2CC[C@H]1C2 [Example 628] |  |  | Tryp AVG EC1.5 (μM) [3]: B (B (EC1.5 1-25 μM)) |
| CS(=O)(=O)c1cccc(-c2ccc3c(n2)N(C(=O)Nc2cc(-c4cnco4)ccn2)[C@H]2CCN3C2)c1 [Example 723] |  |  | Tryp AVG EC1.5 (μM) [3]: A (A (EC1.5<1 μM)) |
| O=C(Nc1cnccn1)N1c2nc(-c3cccnc3)ccc2N2CCC[C@H]1C2 [Example 454] |  |  | Tryp AVG EC1.5 (μM) [2]: B (B (EC1.5 1-25 μM)) |
| O=C(Nc1cccc(-c2ccoc2)n1)N1c2nc(-c3cccc(C(F)(F)F)c3)ccc2N2CC[C@H]1C2 [Example 654] |  |  | Tryp AVG EC1.5 (μM) [3]: A (A (EC1.5<1 μM)) |
| O=C(Nc1cnccn1)N1c2nc(N3CCCCC3)ccc2N2CC[C@H]1C2 [(9S)-5-(piperidin-1-yl)-N-(pyrazin-2-yl)-1,6,8-triazatricyclo[7.2.1.0 {2,7}]dodeca-2,4,6-triene-8-carboxamide] | B (B (EC1.5 1-25 μM)) | > 150% |  |
| Cc1cncc(-c2ccc3c(n2)N(C(=O)Nc2cccnn2)[C@H]2CCCN3C2)c1 [Example 519] |  |  | Tryp AVG EC1.5 (μM) [2]: A (A (EC1.5<1 μM)) |
| CC(C)(C)OC(=O)NCC#Cc1ccc(NC(=O)N2c3nc(-c4cccc(C(F)(F)F)c4)ccc3N3CC[C@H]2C3)cc1-c1cnco1 [Example 751] |  |  | Tryp AVG EC1.5 (μM) [3]: A (A (EC1.5<1 μM)) |
| CN(C)c1ccnc(NC(=O)N2c3nc(-c4cccc(C(F)(F)F)c4)ccc3N3CC[C@H]2C3)n1 [Example 747] |  |  | Tryp AVG EC1.5 (μM) [3]: A (A (EC1.5<1 μM)) |
| O=C(Nc1ccccn1)N1c2nc(N3CCC(C(F)(F)F)C3)ccc2N2CC[C@H]1C2 (stereo partly drawn) [(9S)-N-(pyridin-2-yl)-5-[(3S)-3-(trifluoromethyl)pyrrolidin-1-yl]-1,6,8-triazatricyclo[7.2.1.0^{2,7}]dodeca-2(7),3,5-triene-8-carboxamide] | B (B (EC1.5 1-25 μM)) | > 150% |  |
| O=C(Nc1cnccn1)N1c2nc(-c3ccnc(C(F)F)c3)ccc2N2CC[C@H]1C2 [(9S)-5-[2-(difluoromethyl)pyridin-4-yl]-N-(pyrazin-2-yl)-1,6,8-triazatricyclo[7.2.1.0 {2,7}]dodeca-2(7),3,5-triene-8-carboxamide] | A (A (EC1.5<1 μM)) | > 150% |  |
| Cc1cc(-c2ccc3c(n2)N(C(=O)NC2CC2)[C@H]2CCN3C2)ccn1 [(9S)-N-cyclopropyl-5-(2-methylpyridin-4-yl)-1,6,8-triazatricyclo[7.2.1.0 {2,7}]dodeca-2,4,6-triene-8-carboxamide] | B (B (EC1.5 1-25 μM)) |  | Emax: > 150% |

| SMILES | TRP Activity (EC1.5) (Trp peptide assay) | Emax [1] | other results |
| --- | --- | --- | --- |
| Cc1cc(-c2ccc3c(n2)N(C(=O)Nc2cnn(C)c2)[C@H]2CCN3C2)ccn1 [Example 482] |  |  | Tryp AVG EC1.5 (μM) [2]: B (B (EC1.5 1-25 μM)) |
| O=C(Nc1ncccn1)N1c2nc(N3CCC[C@H](C(F)(F)F)C3)ccc2N2CCC[C@H]1C2 [(9S)-N-(pyrimidin-2-yl)-5-[(3S)-3-(trifluoromethyl)piperidin-1-yl]-1,6,8-triazatricyclo[7.3.1.0 {2,7}]trideca-2(7),3,5-triene-8-carboxamide] | A (A (EC1.5<1 μM)) | > 150% |  |
| O=C(CCCCCNC(=O)c1ccc(-c2c3ccc(=O)cc-3oc3cc(O)ccc23)c(C(=O)O)c1)NCc1ccc(NC(=O)N2c3nc(-c4cccc(C(F)(F)F)c4)ccc3N3CC[C@H]2C3)cc1 [Example 547] |  |  | Tryp AVG EC1.5 (μM) [2]: C (C (EC1.5>25 μM)) |
| NCCCCCC(=O)NCc1cccc(NC(=O)N2c3nc(-c4cccc(C(F)(F)F)c4)ccc3N3CC[C@H]2C3)c1 [Example 758] |  |  | Tryp AVG EC1.5 (μM) [3]: A (A (EC1.5<1 μM)) |
| CCc1cnc(NC(=O)N2c3nc(-c4ccc(C)nc4)ccc3N3CC[C@H]2C3)cn1 [(9S)-N-(5-ethylpyrazin-2-yl)-5-(6-methylpyridin-3-yl)-1,6,8-triazatricyclo[7.2.1.0^{2,7}]dodeca-2,4,6-triene-8-carboxamide] | B (B (EC1.5 1-25 μM)) | > 150% |  |
| N#Cc1ccccc1-c1ccc2c(n1)N(C(=O)Nc1ccccn1)[C@H]1CCCN2C1 [Example 449] |  |  | Tryp AVG EC1.5 (μM) [2]: B (B (EC1.5 1-25 μM)) |
| Cc1cnc2c(NC(=O)N3c4nc(-c5cccc(C(F)(F)F)c5)ccc4N4CC[C@H]3C4)cccc2n1 [76 (8)] |  |  | Tryp AVG EC1.5 (μM) (Trp peptide substrate, concentration giving 150% activation of SIRT1): A (A (EC1.5<1 μM)) |
| Cc1ccc(-c2ccc3c(n2)N(C(=O)NC2CCN(C)CC2)[C@H]2CCN3C2)cn1 [(9S)-N-(1-methylpiperidin-4-yl)-5-(6-methylpyridin-3-yl)-1,6,8-triazatricyclo[7.2.1.0^{2,7}]dodeca-2(7),3,5-triene-8-carboxamide] | C (C (EC1.5>25 μM)) | < 150% |  |
| N#Cc1cccc(-c2ccc3c(n2)N(C(=O)Nc2cnccn2)[C@H]2CCCN3C2)c1 [Example 351] |  |  | Tryp AVG EC1.5 (μM) [4]: A (A (EC1.5<1 μM)) |
| O=C(Nc1ccncn1)N1c2nc(-c3cncc(C(F)(F)F)c3)ccc2N2C[C@@H](O)[C@H]1C2 [Example 700] |  |  | Tryp AVG EC1.5 (μM) [3]: B (B (EC1.5 1-25 μM)) |
| Cc1ncc(-c2ccc3c(n2)N(C(=O)Nc2cnccn2)[C@H]2CCN3C2)cn1 [(9S)-5-(2-methylpyrimidin-5-yl)-N-(pyrazin-2-yl)-1,6,8-triazatricyclo[7.2.1.0 {2,7}]dodeca-2(7),3,5-triene-8-carboxamide] | B (B (EC1.5 1-25 μM)) | > 150% |  |
| O=C1CN2C[C@H]1N(C(=O)Nc1ccccn1)c1nc(-c3cccc(C(F)(F)F)c3)ccc12 [Example 620] |  |  | Tryp AVG EC1.5 (μM) [2]: B (B (EC1.5 1-25 μM)) |
| Cc1cc(-c2ccc3c(n2)N(C(=O)Nc2cncc(C4CC4)n2)[C@H]2CCN3C2)ccn1 [(9S)-N-(6-cyclopropylpyrazin-2-yl)-5-(2-methylpyridin-4-yl)-1,6,8-triazatricyclo[7.2.1.0 {2,7}]dodeca-2(7),3,5-triene-8-carboxamide] | A (A (EC1.5<1 μM)) | > 150% |  |
| COc1cc(NC(=O)N2c3nc(-c4cncc(Cl)c4)ccc3N3CCC[C@H]2C3)ncn1 [Example 405] |  |  | Tryp AVG EC1.5 (μM) [4]: A (A (EC1.5<1 μM)) |
| Cc1cc(-c2ccc3c(n2)N(C(=O)Nc2cnn(C)c2)[C@H]2CCCN3C2)ccn1 [(9S)-N-(1-methyl-1H-pyrazol-4-yl)-5-(2-methylpyridin-4-yl)-1,6,8-triazatricyclo[7.3.1.0 {2,7}]trideca-2(7),3,5-triene-8-carboxamide] | B (B (EC1.5 1-25 μM)) | > 150% |  |
| O=C(Nc1cnccn1)N1c2nc(-c3cccc(Cl)c3)ccc2N2CCC1CC2 [Example 543] |  |  | Tryp AVG EC1.5 (μM) [2]: B (B (EC1.5 1-25 μM)) |
| O=C(Nc1cc(O)ncn1)N1c2nc(N3CCCC(C(F)(F)F)C3)ccc2N2CCC[C@H]1C2 (stereo partly drawn) [Example 361] |  |  | Tryp AVG EC1.5 (μM) [4]: A (A (EC1.5<1 μM)) |
